For 15 compounds, mortality results are on record in patent US8916183B2, “Pesticidal compositions and processes related thereto” (priority 2012, dated 2014).

Holding throughout (assay type): in vivo
Test [1] concerns Beet Armyworm (BAW) (Spodoptera exigua). As to the kind of experiment: Bioassay on beet armyworm (BAW), 128-well diet tray assay. The note with it: Spodoptera exigua; beet armyworm, 50 μg/cm^2; read-out: % Mortality BAW 50 μg/cm^2.
In test [2] the test system is Corn Earworm (CEW) (Helicoverpa zea). As to the kind of experiment: Bioassay on corn earworm (CEW), 128-well diet tray assay. The note with it: Helicoverpa zea; corn earworm, 50 μg/cm^2; read-out: % Mortality CEW 50 μg/cm^2. The essentials:
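Activity was scored as percent larval mortality per well, averaged across eight wells and reported on a rating scale. Diet trays (128-well) were kept at 25° C with 14:10 light-dark for five to seven days.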

Test [3] has as its system Green Peach Aphid (GPA) (Myzus persicae). As to the kind of experiment: Bioassay on green peach aphid (GPA), foliar spray on cabbage seedlings. The conditions noted are these: green peach aphid, 200 ppm, read-out: % Mortality GPA 200 ppm. The essentials:
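Cabbage seedlings (2-3 true leaves), each infested a day earlier with 20-50 wingless adult and nymph GPA, were sprayed on both leaf sides to runoff, four pots per treatment. Corrected % control was calculated against solvent-check plants.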

As for `Cc1cc(C)c(N2CCCS/C2=N\N=C\c2ccc(-c3ncn(-c4ccc(OC(F)(F)F)cc4)n3)cc2)c(C)c1` [Compound 184C], the mortality at 50 µg/cm2 in test [1] and in test [2] was 50 to 100% throughout. Also, in test [3], the mortality at 200 ppm was 0%.

For `CCc1ccccc1N1CCCS/C1=N\N=C\c1ccc(-c2ncn(-c3ccc(OC(F)(F)F)cc3)n2)cc1` [Compound 185C], the mortality at 50 µg/cm2 in test [1] and in test [2] was 50 to 100% each time. Also, in test [3], the mortality at 200 ppm came out at 0%.

Consider `FC(F)(F)Oc1ccc(-n2cnc(-c3ccc(/C=N/N=C4\SCCCN4c4ccccc4C4CC4)cc3)n2)cc1` [Compound 186C], for which the mortality at 50 µg/cm2 in test [1] and in test [2] was 50 to 100% in each case. In addition, the mortality at 200 ppm in test [3] lay within 0 to 80%.

As for `FC(F)(F)Oc1ccc(-n2cnc(-c3ccc(/C=N/N=C4\SCCCN4c4c(Cl)cccc4Cl)cc3)n2)cc1` [Compound 187C], the mortality at 50 µg/cm2 in test [1] and in test [2] was 50 to 100% each time. In addition, in test [3], the mortality at 200 ppm was 0%.

Regarding `Fc1cccc(Cl)c1N1CCCS/C1=N\N=C\c1ccc(-c2ncn(-c3ccc(OC(F)(F)F)cc3)n2)cc1` [Compound 188C], the mortality at 50 µg/cm2 in test [1] and in test [2] was 50 to 100% each time. Also, the mortality at 200 ppm in test [3] was 0 to 80%.

Regarding `Fc1cccc(F)c1N1CCCS/C1=N\N=C\c1ccc(-c2ncn(-c3ccc(OC(F)(F)F)cc3)n2)cc1` [Compound 189C], the mortality at 50 µg/cm2 in test [1] and in test [2] was 50 to 100% in each case. Also, in test [3], the mortality at 200 ppm was 0 to 80%.

Consider `FC(F)(F)Oc1ccc(-n2cnc(-c3ccc(/C=N/N=C4\SCCCN4c4c(Cl)cccc4C(F)(F)F)cc3)n2)cc1` [Compound 190C], for which the mortality at 50 µg/cm2 in test [1] and in test [2] was 50 to 100% throughout. In addition, the mortality at 200 ppm in test [3] is 0 to 80%.

In the case of `COc1ccccc1N1CCCS/C1=N\N=C\c1ccc(-c2ncn(-c3ccc(OC(F)(F)F)cc3)n2)cc1` [Compound 191C], the mortality at 50 µg/cm2 in test [1] and in test [2] was 50 to 100% throughout. Further, the mortality at 200 ppm in test [3] was found to be 0%.

For `COc1ccc(N2CCCS/C2=N\N=C\c2ccc(-c3ncn(-c4ccc(OC(F)(F)F)cc4)n3)cc2)c(C)c1` [Compound 192C], the mortality at 50 µg/cm2 in test [1] and in test [2] was 50 to 100% in each case. In test [3], the mortality at 200 ppm is 0 to 80%.

In the case of `CC(C)Cc1ccccc1N1CCCS/C1=N\N=C\c1ccc(-c2ncn(-c3ccc(OC(F)(F)F)cc3)n2)cc1` [Compound 193C], the mortality at 50 µg/cm2 in test [1] and in test [2] was 50 to 100% each time. In addition, the mortality at 200 ppm in test [3] fell in the range of 0 to 80%.

Turning to `FC(F)(F)Oc1ccc(-n2cnc(-c3ccc(/C=N/N=C4\SCCCN4c4ccccc4-c4ccccc4)cc3)n2)cc1` [Compound 194C], the mortality at 50 µg/cm2 in test [1] and in test [2] was 50 to 100% throughout. The mortality at 200 ppm in test [3] lay within 0 to 80%.

Take `Cc1ccccc1N1CCCS/C1=N\N=C\c1ccc(-c2ncn(-c3ccc(OC(F)(F)F)cc3)n2)cc1` [Compound 195C]: the mortality at 50 µg/cm2 in test [1] and in test [2] was 50 to 100% throughout. Besides, the mortality at 200 ppm in test [3] lay in the range of 0 to 80%.

As to `Cc1cccc(Cl)c1N1CCCS/C1=N\N=C\c1ccc(-c2ncn(-c3ccc(OC(F)(F)F)cc3)n2)cc1` [Compound 196C], the mortality at 50 µg/cm2 in test [1] and in test [2] was 50 to 100% in each case. Besides, in test [3], the mortality at 200 ppm worked out at 0%.

With `CC(C)=Cc1ccccc1N1CCCS/C1=N\N=C\c1ccc(-c2ncn(-c3ccc(OC(F)(F)F)cc3)n2)cc1` [Compound 197C], the mortality at 50 µg/cm2 in test [1] and in test [2] was 50 to 100% each time. Besides, in test [3], the mortality at 200 ppm turned out to be 0%.

As for `Cc1cccnc1N1CCCS/C1=N\N=C\c1ccc(-c2ncn(-c3ccc(OC(F)(F)F)cc3)n2)cc1` [Compound 198C], the mortality at 50 µg/cm2 in test [1] and in test [2] was 50 to 100% throughout. In test [3], the mortality at 200 ppm worked out at 0%.
